{"source": "patent US8183256B2", "about": "“Remedy or preventive for integration dysfunction syndrome” (Toray Industries, Inc., priority 2008, dated 2012)", "key": {"[1]": {"tested_on": "PCP-induced hyperlocomotion", "experiment": "Mouse PCP-induced hyperlocomotion", "format": "in vivo", "settings": "ddy male mice, PCP 10 mg/kg s.c."}, "[2]": {"tested_on": "Prepulse Inhibition (PPI)", "experiment": "Startle response in rat prepulse inhibition (PPI) model", "format": "in vivo", "settings": "SD male rats", "source_text": "Further, the fact that there is no risk, in the above-described compound or a pharmaceutically acceptable acid addition salt thereof, of causing impaired information processing related to cognitive deficiencies which is a symptom of schizophrenia can be confirmed by investigating the effect of the compound on the phenomenon wherein the startle response to a startle stimulus (pulse) in an animal is inhibited by presentation of a weak stimulus (prepulse) prior to presentation of a startle stimulus (pulse) (Prepulse Inhibition, PPI) according to the method described in Bio. Psychiatry., 57, 1550, 2005. In this method, inhibition of PPI indicates abnormality in information processing, and is known to reflect cognitive deficiencies, which is a symptom of schizophrenia, and the like.\nIn the experiments, 8 SD male rats of 9 to 10 weeks old were used per each group. The measurement was carried out using an apparatus for measuring startle responses of small animals (San Diego Instruments). […]"}}, "data": [{"smiles": "CN(C(=O)/C=C/c1ccoc1)[C@@H]1CC[C@@]2(O)[C@H]3Cc4ccc(O)c5c4[C@@]2(CCN3CC2CC2)[C@H]1O5.Cl", "note": "[Compound 1, (−)-17-(Cyclopropylmethyl)-3,14β-Dihydroxy-4,5α-Epoxy-6β-[N-Methyl-Trans-3-(3-Furyl)Acrylamido]Morphinan Hydrochloric Acid Salt]", "values": [{"measurement": "dose statistically significantly inhibiting PCP-induced hyperlocomotion", "setting": "[1]; test compound s.c. 1 minute before PCP, locomotor counts, vs vehicle-administered group", "result": "≥ 0.01", "unit": "mg/kg"}, {"measurement": "effect on PPI (% Prepulse Inhibition)", "setting": "[2]; 0.03 mg/kg s.c., 30 minutes before stimulation session, 80 dB prepulse, 120 dB pulse", "result": "did not inhibit PPI"}]}, {"smiles": "C=C1CC[C@@]2(O)[C@H]3Cc4ccc(O)c5c4[C@@]2(CCN3CC2CC2)[C@H]1O5", "note": "[Nalmefene]", "values": [{"measurement": "effect on the amount of locomotion (PCP-induced hyperlocomotion)", "setting": "[1]; test compound at 10 mg/kg s.c.", "result": "did not have any effect"}]}, {"smiles": "c1ccc(C2(N3CCCCC3)CCCCC2)cc1", "note": "[Phencyclidine]", "values": [{"measurement": "effect on PPI (% Prepulse Inhibition)", "setting": "[2]; positive control at 4 mg/kg, p<0.05 against the vehicle-administered group", "result": "statistically significant inhibitory effect on PPI"}]}]}
